These are literature values, as cited in US20200069777A1, “ANTIMICROBIAL COMPOSITIONS AND FORMULATIONS” (Matoke Holdings Limited, priority 2016, published 2020).

For this data set the following is noted: 20° C. and 1 atm.

Regarding `O=C[C@H](O)[C@@H](O)[C@H](O)[C@H](O)CO` [Glucose], the solubility was 90 g/100 g water.
